Reference: ChEMBL document CHEMBL2086308, “Cytotoxic 2-phenyacrylnitriles, the importance of the cyanide moiety and discovery of potent broad spectrum cytotoxic agents” (2012)

Tests used:
Type in all cases: functional
A2780 [1] = assay: Growth inhibition of human A2780 cells assessed as reduction in cell growth at 25uM after 72 hrs by MTT assay; conditions: A2780, 72 h, read-out: GI
MIA PaCa-2 [2] = assay: Growth inhibition of human MIAPaCa2 cells assessed as reduction in cell growth at 25uM after 72 hrs by MTT assay; conditions: MIA PaCa-2, 72 h, read-out: GI
[3] = Growth inhibition of human BE(2)-C cells assessed as reduction in cell growth at 25uM after 72 hrs by MTT assay; conditions: read-out: GI
[4] = Growth inhibition of human SJ-G2 cells assessed as reduction in cell growth at 25uM after 72 hrs by MTT assay; conditions: SJ-G2, 72 h, read-out: GI
DU-145 [5] = assay: Growth inhibition of human DU145 cells assessed as reduction in cell growth at 25uM after 72 hrs by MTT assay; conditions: DU-145, 72 h, read-out: GI
SW480 [6] = assay: Growth inhibition of human SW480 cells assessed as reduction in cell growth at 25uM after 72 hrs by MTT assay; conditions: SW480, 72 h, read-out: GI
HT-29 [7] = assay: Growth inhibition of human HT-29 cells assessed as reduction in cell growth at 25uM after 72 hrs by MTT assay; conditions: HT-29, 72 h, read-out: GI
[8] = Growth inhibition of mouse SMA cells assessed as reduction in cell growth at 25uM after 72 hrs by MTT assay; conditions: read-out: GI
NCI-H460 [9] = assay: Growth inhibition of human H460 cells assessed as reduction in cell growth at 25uM after 72 hrs by MTT assay; conditions: NCI-H460, 72 h, read-out: GI
A-431 [10] = assay: Growth inhibition of human A431 cells assessed as reduction in cell growth at 25uM after 72 hrs by MTT assay; conditions: A-431, 72 h, read-out: GI
MCF7 [11] = assay: Growth inhibition of human MCF7 cells assessed as reduction in cell growth at 25uM after 72 hrs by MTT assay; conditions: MCF7, 72 h, read-out: GI
MIA PaCa-2 [12] = assay: Growth inhibition of human MIAPaCa2 cells assessed as reduction in cell growth after 72 hrs by MTT assay; conditions: MIA PaCa-2, 72 h
SW480 [13] = assay: Growth inhibition of human SW480 cells assessed as reduction in cell growth after 72 hrs by MTT assay; conditions: SW480, 72 h
[14] = Growth inhibition of mouse SMA cells assessed as reduction in cell growth after 72 hrs by MTT assay
A-431 [15] = assay: Growth inhibition of human A431 cells assessed as reduction in cell growth after 72 hrs by MTT assay; conditions: A-431, 72 h
A2780 [16] = assay: Growth inhibition of human A2780 cells assessed as reduction in cell growth after 72 hrs by MTT assay; conditions: A2780, 72 h
NCI-H460 [17] = assay: Growth inhibition of human H460 cells assessed as reduction in cell growth after 72 hrs by MTT assay; conditions: NCI-H460, 72 h
MCF7 [18] = assay: Growth inhibition of human MCF7 cells assessed as reduction in cell growth after 72 hrs by MTT assay; conditions: MCF7, 72 h
DU-145 [19] = assay: Growth inhibition of human DU145 cells assessed as reduction in cell growth after 72 hrs by MTT assay; conditions: DU-145, 72 h
HT-29 [20] = assay: Growth inhibition of human HT-29 cells assessed as reduction in cell growth after 72 hrs by MTT assay; conditions: HT-29, 72 h
[21] = Growth inhibition of human BE(2)-C cells assessed as reduction in cell growth after 72 hrs by MTT assay
[22] = Growth inhibition of human SJ-G2 cells assessed as reduction in cell growth after 72 hrs by MTT assay; conditions: SJ-G2, 72 h

Compound | inhibition of growth at 25 µM (A2780 [1]) [%] | inhibition of growth at 25 µM (MIA PaCa-2 [2]) [%] | inhibition of growth at 25 µM [3] [%] | inhibition of growth at 25 µM [4] [%] | inhibition of growth at 25 µM (DU-145 [5]) [%] | inhibition of growth at 25 µM (SW480 [6]) [%] | inhibition of growth at 25 µM (HT-29 [7]) [%] | inhibition of growth at 25 µM [8] [%] | inhibition of growth at 25 µM (NCI-H460 [9]) [%] | GI50 (MIA PaCa-2 [12]) [µM] | GI50 (SW480 [13]) [µM] | GI50 [14] [µM] | GI50 (A-431 [15]) [µM] | GI50 (A2780 [16]) [µM] | GI50 (NCI-H460 [17]) [µM] | GI50 (MCF7 [18]) [µM] | GI50 (DU-145 [19]) [µM] | GI50 (HT-29 [20]) [µM] | GI50 [21] [µM] | GI50 [22] [µM] | other results
N#C/C(=C\c1ccc(CO)o1)c1ccc(Cl)c(Cl)c1 | 25 | < 10 | < 10 | 27 | < 10 | < 10 | 41 | 16 | 30 | – | – | – | – | – | – | – | – | – | – | – | inhibition of growth at 25 µM (A-431 [10]): < 10%; inhibition of growth at 25 µM (MCF7 [11]): 27%
N#C/C(=C\c1cc2ccccc2o1)c1ccc(Cl)c(Cl)c1 | 49 | 47 | 20 | 46 | 14 | 43 | 43 | 55 | 36 | – | – | – | – | – | – | – | – | – | – | – | inhibition of growth at 25 µM (A-431 [10]): 54%; inhibition of growth at 25 µM (MCF7 [11]): 40%
Cc1ccc(/C=C(\C#N)c2ccc(Cl)c(Cl)c2)o1 | 43 | 36 | 50 | 32 | < 10 | 47 | 58 | 33 | 40 | – | – | – | – | – | – | – | – | – | – | – | inhibition of growth at 25 µM (A-431 [10]): 46%; inhibition of growth at 25 µM (MCF7 [11]): 68%
Cc1[nH]c2ccccc2c1/C=C(\C#N)c1ccc(Cl)c(Cl)c1 | – | – | – | – | – | – | – | – | – | 2.4 | 3.8 | 2.9 | 2.1 | 2.2 | 2.2 | 2.8 | 5.6 | 1.9 | 2 | 4 | –
Cc1ccc2[nH]cc(/C=C(\C#N)c3ccc(Cl)c(Cl)c3)c2c1 | – | – | – | – | – | – | – | – | – | 3.7 | 4.7 | 4.1 | 3 | 3.2 | 3 | 3.7 | 7.4 | 2.8 | 3.4 | 5.3 | –
N#C/C(=C\c1c[nH]c2ccc(Cl)cc12)c1ccc(Cl)c(Cl)c1 | – | – | – | – | – | – | – | – | – | 11 | 8.8 | 6.7 | 7.7 | 7.4 | 8.7 | 2.3 | 12 | 7.1 | 8.6 | 9.7 | –
N#C/C(=C\c1c[nH]c2ccc(Br)cc12)c1ccc(Cl)c(Cl)c1 | – | – | – | – | – | – | – | – | – | 9 | 8.2 | 9.2 | 7.3 | 6.8 | 7.5 | 6.9 | 13 | 7 | 7 | 10 | –
N#C/C(=C\c1c[nH]c2ccc(C#N)cc12)c1ccc(Cl)c(Cl)c1 | 47 | 43 | 50 | 44 | 18 | 43 | 57 | 44 | 33 | – | – | – | – | – | – | – | – | – | – | – | inhibition of growth at 25 µM (A-431 [10]): 34%; inhibition of growth at 25 µM (MCF7 [11]): 38%
N#C/C(=C\c1c[nH]c2c1ccc1ccccc12)c1ccc(Cl)c(Cl)c1 | – | – | – | – | – | – | – | – | – | 6.1 | 7.5 | 5.9 | 3 | 3.7 | 5 | 4 | 8.7 | 4.2 | 3.8 | 6.8 | –
N#C/C(=C\c1ccc2[nH]ccc2c1)c1ccc(Cl)c(Cl)c1 | – | – | – | – | – | – | – | – | – | 0.5 | 0.67 | 0.74 | 0.37 | 0.41 | 0.39 | 0.23 | 1.04 | 0.36 | 0.33 | 0.83 | –
